The source of these data is PubChem BioAssay (NCI).

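Five compound concentrations were applied to cells in 96-well plates for 48 hours; endpoints were derived by simple linear interpolation of the resulting dose-response curve. The concentration for 50% growth inhibition is given as GI50. Definition used: TGI = concentration required for complete inhibition of growth.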 A value given as a limit tells only on which side of the number the result lay.

What all share (assay): NCI anticancer screen, dose series, 48 h
Assay [1] has as its system SNB-75 CNS.
Assay [2] has as its system SF-539 CNS.
Assay [3] relates to EKVX NSCLC.
In assay [4] the test system is MDA-MB-231 breast.
For assay [5], the system named is ACHN renal.
Assay [6] concerns HT29 colon.
The test system of assay [7] is HS 578T breast.
For assay [8], the system named is OVCAR-8 ovarian.
Assay [9] has as its system MALME-3M melanoma.
For assay [10], the system named is MCF7 breast.

Consider `O=C(O)[C@@H]1C2CC([C@@H]1C(=O)O)[C@H](N1C(=O)CCC1=O)[C@@H]2Br` (stereo partly specified), for which the TGI in assay [1], in assay [2], in assay [3], in [4], in [5] and in assay [6] was above 100 µM in each case. Also, the TGI in [7], in assay [8] and in assay [9] was above 100 µM each time.

With `CN(C)c1ccc2c(NCCCCCCNc3ccnc4cc(N(C)C)ccc34)ccnc2c1`, the TGI is 45.2 µM in assay [2]; above 100 µM in assay [3]; 33.6 µM in assay [5]; above 100 µM in assay [6]; 20.5 µM in assay [8]; 12.9 µM in [9].

With `COc1cc2c(cc1OC)-c1ccc3cc4c(cc3c1N(CCN1CCCC1)C2)OCO4`, the GI50 in [1] is 0.357 µM; in assay [2], 0.643 µM; in assay [3], 0.953 µM; in [4], 1.27 µM; in [5], 0.514 µM; in assay [6] it was 0.313 µM. Besides, the GI50 is 1.53 µM in assay [7], 0.404 µM in [8] and 2.05 µM in assay [9]. In addition, the TGI was determined as 5.81 µM in assay [1]; 2.75 µM in assay [2]; 7.31 µM in assay [3]; 3.3 µM in [4]; 2.43 µM in assay [5]; 1.47 µM in assay [6]. Besides, the TGI in assay [7] amounted to 14.7 µM; in assay [8], 2.06 µM; in [9] it was 14.2 µM.

For `CC1=C2CCCC2C/C(=N/Nc2ccc([N+](=O)[O-])cc2[N+](=O)[O-])CC1` (stereo unspecified), the TGI in [1], in [2], in [5], in [6], in assay [8] and in assay [9] was above 100 µM throughout.

With `CCOP(=O)(OCC)C1CCCCOC1=O` (stereo unspecified), the TGI in assay [1], in [2], in assay [3], in [5], in [6] and in assay [8] was above 100 µM each time. Besides, the TGI in assay [9] was above 100 µM.

With `Nc1cc(=O)[nH]c(SC2=NC(N)CC(O)C2)n1` (stereo unspecified), the TGI in assay [1], in [2], in assay [3], in assay [5], in assay [6] and in [8] was above 100 µM in each case. The TGI in assay [9] was above 100 µM.

`Cc1ccc2c(c1)C1(C)OC(CC(N)C1O)O2` (stereo unspecified): the TGI in assay [1], in assay [2], in [3], in assay [5], in [6] and in assay [8] was above 100 µM throughout. Moreover, the TGI in assay [9] is above 100 µM.

With `CCCC(O)[C@@H](O)c1ccc2c(c1O)C(=O)c1c(OC)cccc1C2=O` (stereo partly specified), the TGI in assay [1] is above 100 µM; in assay [2], 58.8 µM; in [3] it was above 100 µM; in assay [5] it was above 100 µM; in [6] it was above 100 µM; in assay [8], above 100 µM. In addition, the TGI in assay [9] came to 90.3 µM.

Take `CC1(Sc2ccccc2)CN(Cc2ccccc2)C1=O` (stereo unspecified): the TGI in assay [1], in assay [2], in assay [3], in [5], in [6] and in assay [8] was above 100 µM each time.

For `COC(=O)CCC(=O)N1Cc2cc(C)ccc2N(C(=O)CCC(=O)OC)Cc2cc(C)ccc21`, the TGI in [2], in assay [3], in assay [5], in assay [6] and in assay [8] was above 100 µM each time.

For the molecule `O=C(NCCCCCCNC(=O)c1cccc2ccccc12)c1cccc2ccccc12`, the TGI was 9.55 µM in assay [1]; 35.4 µM in assay [2]; above 100 µM in [3]; above 100 µM in assay [5]; above 100 µM in assay [6]; above 100 µM in [8]. The TGI in assay [9] was above 100 µM.

Regarding `CCOC(=O)C=C1CCN(C(=O)c2ccccc2)CC1`, the TGI in assay [1], in assay [2], in assay [3], in assay [5], in [6] and in assay [8] was above 100 µM each time. For the same molecule, the TGI in [9] was above 100 µM.

Turning to `NC(=O)OCC(COc1ccc(Cl)cc1)OC(=O)c1ccccc1Cl` (stereo unspecified), the TGI in assay [1] was above 100 µM; in assay [2], 36.1 µM; in assay [3] it was 70 µM; in assay [5], 95.1 µM; in [6], 33.2 µM; in assay [8], 54.3 µM. For the same molecule, the TGI in assay [9] amounted to 48.6 µM.

For the molecule `N#CC(C#N)=Cc1ccc(-c2ccc(-c3nc4ccccc4s3)cc2)o1`, the GI50 in assay [1] was 25.3 µM; in assay [2] it was 11.2 µM; in assay [3] it was 25.7 µM; in assay [4], 19.8 µM; in assay [5] it was 18.5 µM; in assay [10] it was 6.2 µM. The values for the GI50 in [6], in [8] and in [9] were 46 µM, 12.7 µM and 22.2 µM, respectively. Besides, the TGI in [1] was 60 µM; in [2], 26.7 µM; in assay [3] it was above 100 µM; in [4] it was 37.8 µM; in [5], above 100 µM; in assay [10], above 100 µM. Also, the values for the TGI in assay [6], in assay [8] and in assay [9] were above 100 µM, 33.1 µM and above 100 µM, respectively.

Turning to `COC(=O)[C@@H]1CSC(=S)N1C(=O)C[C@H]1CC=CC[C@H]1CC(=O)Sc1ccccc1`, the TGI in assay [1] was 29 µM; in [2], 32.1 µM; in assay [3], 32.2 µM; in assay [5], 32.1 µM; in assay [6], 37.4 µM; in [8] it was 50.6 µM. The same molecule came in with a TGI in [9] of 56.7 µM.

In the case of `CN1CCc2c1nc(-c1ccccc1)c1c2N(C)CC1`, the TGI in assay [1], in assay [2], in assay [3], in assay [5], in assay [6] and in assay [8] was above 100 µM throughout. In assay [9], this molecule returned a TGI above 100 µM.

Turning to `CC1=CC(=O)c2c(O)cccc2C1=O`, the TGI was found to be 16.9 µM in assay [1]; 3.92 µM in [2]; 3.08 µM in [3]; 3.64 µM in [4]; 3.01 µM in assay [5]; 3.9 µM in assay [10]. The TGI was 3.46 µM in [6], 3.2 µM in [8] and 2.19 µM in [9].

For the molecule `NCC1(N2CCOCC2)C2CCCC21CO` (stereo unspecified), the TGI in assay [1], in assay [2], in [5], in assay [6], in assay [8] and in assay [9] was above 100 µM throughout.

For `CS(=O)(=O)CC1=Nc2nnc(CCCCCCCc3nnc4n3C(=O)C(CS(C)(=O)=O)=N4)n2C1=O`, the TGI in assay [1], in assay [2], in assay [3], in assay [5], in [6] and in [8] was above 100 µM each time. In assay [9], this molecule yielded a TGI above 100 µM.

With `CC(=O)[O][Pb]([O]C(C)=O)([c]1ccccc1)[c]1ccccc1`, the GI50 was 4.41 µM in [1]; 13.3 µM in [2]; above 35 µM in [3]; above 100 µM in assay [5]; 14.5 µM in assay [6]; 7.15 µM in [8]. For the same molecule, in assay [9], the GI50 is above 100 µM. Further, the TGI in [1] is above 77.7 µM; in assay [2] it was above 100 µM; in assay [3], above 100 µM; in [5], above 100 µM; in assay [6], above 100 µM; in assay [8], above 100 µM. Moreover, in [9], the TGI is above 100 µM.

With `COC12C=CC(CC1)c1c(O)ccc(O)c12` (stereo unspecified), the TGI is above 100 µM in assay [1]; above 100 µM in assay [2]; above 100 µM in [3]; above 61.4 µM in assay [5]; above 100 µM in [6]; above 70.1 µM in assay [8]. The molecule further returned a TGI in [9] above 100 µM.

Regarding `COC(=O)c1[nH]c(=S)[nH]c(=O)c1-c1ccc(Cl)cc1`, the TGI in assay [1], in assay [2], in assay [3], in assay [5], in assay [6] and in [8] was above 50 µM throughout. The TGI in assay [9] is above 50 µM.

As for `O=C(CCn1[nH]c(=O)c(Cl)c(Cl)c1=O)NOCCCc1ccccc1`, the TGI in assay [1], in assay [2], in [3], in assay [5], in assay [6] and in assay [8] was above 100 µM each time. In assay [9], this molecule gave a TGI above 100 µM.

Regarding `COc1cc2cc(Oc3ccc(NC(=O)Nc4ccc(Cl)c(C(F)(F)F)c4)cc3)c(C)nc2cc1OCCN1CCCCC1`, the GI50 in assay [1] was 1.13 µM; in [2], 1.58 µM; in assay [3] it was 1.46 µM; in [4] it was 1.39 µM; in [5], 1.57 µM; in assay [9] it was 1.62 µM. In addition, the TGI in assay [1] was 2.33 µM; in assay [2], 2.94 µM; in [3], 2.88 µM; in [4], 2.75 µM; in assay [5] it was 2.92 µM; in [9] it was 3.13 µM.

As for `COc1ccccc1[N-]C(C1=C([O-])c2ccccc2C1=O)c1ccccc1.COc1ccccc1[N-]C(C1=C([O-])c2ccccc2C1=O)c1ccccc1.[Cu+2]` (stereo unspecified), the GI50 is 11.9 µM in [1]; 3.82 µM in assay [2]; 10.9 µM in assay [5]; 18.2 µM in assay [6]; 7.52 µM in assay [8]; 6.85 µM in [9]. The TGI in assay [1] is 37.1 µM; in assay [2] it was 15.1 µM; in [5], 74.7 µM; in [6], above 100 µM; in assay [8] it was above 100 µM; in assay [9], above 100 µM.

Consider `O=C(CCN1CCCC1)Nc1ccc2c(NCc3ccc(F)cc3)c3ccccc3nc2c1`, for which the GI50 in [1] was 0.506 µM; in [2], 0.443 µM; in assay [3], 0.58 µM; in assay [4], 0.454 µM; in [5], 0.483 µM; in [10], 0.314 µM. For the same molecule, the GI50 in [6] is 0.377 µM; in assay [8] it was 0.517 µM; in assay [9], 1.11 µM. The TGI was 1.87 µM in assay [1]; 1.63 µM in assay [2]; 2.3 µM in assay [3]; 1.91 µM in assay [4]; 1.87 µM in assay [5]; 1.31 µM in [10]. Also, the TGI in assay [6] came to 1.85 µM; in [8], 2.86 µM; in assay [9] it was 2.4 µM.

On to `CN(C)c1ccc2nc3ccc(=[N+](C)C)cc-3oc2c1`, for which the GI50 in assay [1] is 2.63 µM; in [2] it was 0.707 µM; in assay [3], 0.636 µM; in assay [5] it was 7.28 µM; in [10] it was 0.368 µM; in assay [6] it was 3.38 µM. Also, the values for the GI50 in assay [7], in assay [8] and in assay [9] were 15.8 µM, 2.13 µM and 1.67 µM, respectively. Besides, the TGI in assay [1] is 17.1 µM; in assay [2], 15.4 µM; in assay [3], 6.76 µM; in assay [5], 52.4 µM; in assay [10], 2.3 µM; in assay [6], 29.3 µM. Besides, the TGI in assay [7] turned out to be 64 µM; in assay [8], 7.36 µM; in assay [9], 4.13 µM.

Turning to `O=C(CC1Sc2ccccc2NC1=O)Nc1cc(Cl)ccc1Cl` (stereo unspecified), the TGI in [1], in assay [2], in assay [3], in assay [5], in assay [6] and in assay [8] was above 100 µM in each case. The TGI in assay [9] was above 100 µM.

Take `CC(=O)/C(=C\c1ccco1)C(=O)Nc1ccccc1`: the TGI in assay [2], in assay [3], in [5], in [6], in [8] and in [9] was above 100 µM in each case.
